Experimental data: patent US12364261B2, “Liquid sulfonylurea- and Li-salt containing herbicidal compositions” (priority 2016, dated 2025)
Like-named read-outs stand apart in the source and are kept apart here.

Assays:
[1] = chemical stability of active ingredient in liquid formulation after storage at 54° C. for two weeks (HPLC, relative to −10° C. control); type: physicochemical
Experimental: Chemical stability can be determined as a percentage of the sulfonyl urea remaining (e.g. as determined by HPLC) when the liquid composition (e.g. a 50 ml sample of the liquid composition in a 60 ml hermetically sealed Winchester bottle) has been stored at 54° C. for two weeks relative to a corresponding control sample that has been stored at −10° C. for two weeks.
Sulfonylurea was added to a solvent in an amount of 25 wt. %. The mixture was placed in a mill (Eiger Torrance Mini Mill) containing glass beads (1.0-1.25 mm). The suspension was then milled to provide a 25 wt. % sulfonylurea millbase having a particle size (D50) between 2 and 3 μm.
Lithium salt was added to solvent in an amount of 25 wt. % and milled as described above to provide a 25 wt. % lithium salt millbase having a particle size (D50) between 2 and 3 μm.
An appropriate amount of the milled concentrate of sulfonylurea (i) was blended with solvent (optionally containing surfactant) until homogenous, and then further blended with milled concentrate of lithium salt (ii) until homogenous, resulting in the oil dispersions as described in the tables below.
The liquid formulations were stored in tightly closed glass bottles in thermostatically controlled incubators at 54° C. for two weeks with control samples stored at −10° C. After storage, all formulations were analysed for active ingredient content(s) by HPLC. Stability is reported with respect to the amount of active ingredient remaining relative to a corresponding sample stored at −10° C. for two weeks.

[2] = after 5 days, depending on the selected solvent; U.S. Pat. No. 5,731,264; cited from earlier work
[3] = one week of storage at 40° C.; WO 2007/027863 A2; cited from earlier work
[4] = in the presence of lithium acetate

Row | SMILES | chemical stability in the presence of lithium acetate [1, 4] | also measured
1 | COC(=O)c1ccc(I)cc1S(=O)(=O)NC(=O)Nc1nc(C)nc(OC)n1 [iodosulfuron-methyl, methyl 4-iodo-2-[[[[(4-methoxy-6-methyl-1,3,5-triazin-2-yl)amino]carbonyl]amino]sulfonyl]benzoate] | excellent chemical stability | chemical stability in the presence of lithium salts ([1]; in the presence of lithium acetate, formate, benzoate, octanoate, salicylate, citrate, carbonate, phosphate, chloride and sulphate): excellent chemical stability
2 | COC(=O)c1ccccc1S(=O)(=O)NC(=O)Nc1nc(C)nc(OC)n1 [metsulfuron-methyl, methyl 2-[[[[(4-methoxy-6-methyl-1,3,5-triazin-2-yl)amino]carbonyl]amino]sulfonyl]benzoate] |  | metsulfuron methyl lost [2]: 25-30%; chemical stability in the presence of lithium acetate [1]: excellent chemical stability
3 | COC(=O)c1c(Cl)nn(C)c1S(=O)(=O)NC(=O)Nc1nc(OC)cc(OC)n1 [halosulfuron-methyl, methyl 3-chloro-5-[[[[(4,6-dimethoxy-2-pyrimidinyl)amino]carbonyl]amino]sulfonyl]-1-methyl-1H-pyrazole-4-carboxylate] | excellent chemical stability | 
4 | CCOC(=O)c1cnn(C)c1S(=O)(=O)NC(=O)Nc1nc(OC)cc(OC)n1 [pyrazosulfuron-ethyl, ethyl 5-[[[[(4,6-dimethoxy-2-pyrimidinyl)amino]carbonyl]amino]sulfonyl]-1-methyl-1H-pyrazole-4-carboxylate] | excellent chemical stability | 
5 | COc1cc(OC)nc(NC(=O)NS(=O)(=O)N(C)S(C)(=O)=O)n1 [amidosulfuron, N-[[[[(4,6-dimethoxy-2-pyrimdinyl)amino]carbonyl]amino]sulfonyl]-N-methylmethanesulfonamide] | excellent chemical stability | 
6 | COC(=O)c1ccccc1S(=O)(=O)NC(=O)N(C)c1nc(C)nc(OC)n1 [tribenuron-methyl, methyl 2-[[[[N-(4-methoxy-6-methyl-1,3,5-triazin-2-yl)-N-methylamino]carbonyl]amino]-sulfonyl]benzoate] |  | tribenuron-methyl lost [3]: up to 66.5%
